In patent US20040110681A1, “Method to identify targeting molecules” (priority 2002, published 2004):

Test system: brain tissue
Experiment: Individual peptide variants of A3 on phage, brain selectivity index vs T7-lacZ
Assay type: in vivo, FVB or BALB/c mice
Details: 2 hours circulation; for Brain Targeting Activity: 0.5-1×10^10 pfu co-injected with T7-lacZ; for Selectivity index (BALB/C mice) / Selectivity index (FVB female): brain tissue; for Selectivity index (FVB female): FVB female mice
Protocol: In this example, various individual peptide variants of A3 were tested in vivo for their ability to target brain or other tissues. […] The phage contents of each organ were determined by plaque assay in the presence of X-gal (500 μg/mL) in top agar.
Thus, selectively indices of less than 10 are considered low, those between 10 and […] are considered moderate and those over 100 are considered high.

**Q.** What does the source list for CAGDSMCY [reference compound]?
**A.** Brain Targeting Activity: negative and No; Selectivity index (BALB/C mice): 0.9

**Q.** CAGGLCY was tested. Which “Brain Targeting Activity” value did it give?
**A.** No

**Q.** And the “Brain Targeting Activity” value (listed as A4G)?
**A.** loss of brain targeting activity

**Q.** And the “Selectivity index (FVB female)” value?
**A.** 0.9

**Q.** What does the source list for CALCY?
**A.** Brain Targeting Activity: No; Selectivity index (FVB female): 0.8

**Q.** CDITEYC [reference compound] was tested. Which “Brain Targeting Activity” value did it give?
**A.** No

**Q.** And the “Selectivity index (BALB/C mice)” value?
**A.** 1

**Q.** And the “Selectivity index (FVB female)” value?
**A.** 0.4

**Q.** What does the source list for CGADALCY?
**A.** Brain Targeting Activity: No; Selectivity index (BALB/C mice): 1

**Q.** Which results are given for CGALCY?
**A.** Brain Targeting Activity: No; Selectivity index (FVB female): 0.8

**Q.** What does the source list for CGFDMPC [reference compound]?
**A.** Brain Targeting Activity: No; Selectivity index (FVB female): 0.5

**Q.** For CGGALCY, which “Brain Targeting Activity” value is on record?
**A.** No

**Q.** And the “Brain Targeting Activity” value (listed as A2G)?
**A.** loss of brain targeting activity

**Q.** And the “Selectivity index (FVB female)” value?
**A.** 0.7

**Q.** How did the “Brain Targeting Activity” value turn out when CLCY was run?
**A.** No

**Q.** What about the “Selectivity index (FVB female)” value of the same substance?
**A.** 3.5

**Q.** Which “Brain Targeting Activity” value does the source give for CPADCY [reference compound] here?
**A.** No

**Q.** What about the “Selectivity index (FVB female)” value of the same substance?
**A.** 0.3

**Q.** With CRDVNECD [reference compound] as the substance, how does the “Brain Targeting Activity” value read?
**A.** No

**Q.** And the “Selectivity index (BALB/C mice)” value?
**A.** 1

**Q.** And the “Selectivity index (FVB female)” value?
**A.** 0.3

**Q.** What does the source list for CYGDPC [reference compound]?
**A.** Brain Targeting Activity: No; Selectivity index (FVB female): 0.8

**Q.** Which results are given for YCDAPC [reference compound]?
**A.** Brain Targeting Activity: No; Selectivity index (FVB female): 0.7
